We go through twelve compounds from patent US6534075B1, “Antimicrobial and antiviral compositions and treatments for food surfaces” (Ecolab Inc., priority 1999, dated 2003).

Experiment [1] deals with E. coli. Put plainly: Log reduction of E. coli by liquid compositions, 30 second contact (Tables 4, 5). Type of experiment: cell-based. To be noted: for Log Reduction: E. coli; for E. Coli Log Reduction: single component alone, pH 3, 30 second contact time, vs untreated control. The text has this: Results recorded include the pH of the solution, the color of the solution and the log reduction in microbe. In Table 4, E. coli is used in all examples, while a variety of organisms (gram positive and gram negative bacteria, a yeast, a mold) are used in Table 5. [table] [table]

Experiment [2] deals with S. aureus. Put plainly: Log reduction of S. aureus by liquid compositions, 30 second contact (Table 5). Type of experiment: cell-based. To be noted: N-source:H2O2:KI 0:300:0 ppm, pH 5, 30 second contact. An excerpt:
(§1) Results recorded include the pH of the solution, the color of the solution and the log reduction in microbe. In Table 4, E. coli is used in all examples, while a variety of organisms (gram positive and gram negative bacteria, a yeast, a mold) are used in Table 5.

The subject of experiment [3] is Z. bailii. Put plainly: Log reduction of Z. bailii by liquid compositions, 30 second contact (Table 5). It counts as cell-based.
The test system of experiment [4] is P. expansum. In words: Log reduction of P. expansum by liquid compositions, 15 minute contact (Table 5). Type of experiment: cell-based.
Text: as §1

Experiment [5] concerns S. javiana. Put plainly: Microbial reduction on Roma tomato surfaces, five minute submersion (Table 6). To be noted: tomatoes submerged five minutes at 72° F., versus untreated control. The procedure:
Specifically, comparison is made to the use of either sodium hypochlorite (bleach), hydrogen peroxide or peracetic acid.
Testing was performed on commercial Roma tomato surfaces using the test organism Salmonella javinia. For the pathogenic organisms, a 1:10 dilution of a 10^7 CFU/ml (colony forming units per ml) test system suspension was prepared. Whole tomatoes were placed into a plastic bag, and each bag was inoculated with a 10-mil. test system suspension, resulting in an inoculum level of […]. Bags are gently shaken for even distribution of the test system for five minutes. The produce types are then stored overnight at 4° C. Untreated controls were also prepared. Two-liter volumes of the test solutions were prepared in 4-liter beakers. Solutions were prepared in laboratory tap water to simulate industry conditions. The tomatoes were then exposed to the test solution by submersion for five minutes at 72° F. (about 22° C.). At the end of that time, the tomatoes were removed from the solution and thoroughly rinsed under fresh-running tap water. Fifty grams of the home produce (tomato), plus 100 ml buffered dilution water were placed into a stomacher bag. The tomatoes were massaged for 60 seconds. […] on TGE (Salmonella). Plates were incubated at 35° C. for 48 hours.

Experiment [6] concerns S. aureus. Put plainly: Food-preparation hard surface sanitizing comparison, S. aureus (Table 12). To be noted: actives conc. 300 ppm. It counts as cell-based. The text has this: (§2) Table 12 compares formulas of the present invention with prior art examples of food-preparation hard surface sanitizing. […] [table]
Experiment [7] relates to E. coli ATCC 11229. In words: Food-preparation hard surface sanitizing comparison, E. coli (Table 12). It counts as cell-based. To be noted: actives conc. 300 ppm; 30 second exposure.
Text: as §2

Experiment [8] has as its system Feline parvovirus. To be noted: published results against Feline parvovirus, cited from earlier work.
The subject of experiment [9] is Total bacterial flora. In words: Meat carcass treatment, prerigor beef surfaces (Table 7). To be noted: active antimicrobial 1000 ppm; carcass treated 30 seconds, drained 10 minutes. The protocol: Working Example 5 is similar to the previous example in that comparisons are made between the present invention and known commercial compositions for control of microorganisms on food surfaces. In this case, however, comparisons were made for meat carcass treatments.
Testing was performed on prerigor beef surfaces from a packing house. Total bacterial flora were tested. The carcasses were treated for 30 seconds and drained for 10 minutes. Test samples were isolated and plated for total […].

[10] abbreviates: N-source:H2O2:KI 300:0:0 ppm, pH 7, 30 second contact.

Where two headings read alike, the source gives them in different places. Marks after values point to notes of the source that are not given here.

For `OO` [Formula H2O2, hydrogen peroxide], the “Log Reduction” value in experiment [1] (N-source:H2O2:KI 0:300:0 ppm, pH 5, 30 second contact) was 0.2 log; in experiment [2] it was 0.4 log; in experiment [3] (N-source:H2O2:KI 0:532:0 ppm, pH 3, 30 second contact) it was 0.1 log; in experiment [3] (N-source:H2O2:KI 0:532:0 ppm, pH 5, 30 second contact), 0.1 log; in experiment [3] (N-source:H2O2:KI 0:532:0 ppm, pH 7, 30 second contact), 0.1 log; in experiment [4] (N-source:H2O2:KI 0:532:0 ppm, pH 5, 15 minute contact), 0.0* log. For the same compound, the “Log Reduction” value in experiment [5] (active antimicrobial 80 ppm) was under 0.1 log. The “E. Coli Log Reduction” value in [1] amounted to 0.2 log. Moreover, in experiment [6], the “Log Reduction S. aureus” value is reported as 0.4 log. In addition, in [7], the “Log Reduction E. coli” value came to 0.2 log.
Take `CC(C)O` [IPA]: the “Minimum Concentration (for 10-minute inactivation)” value (“Minimum Concentration” for short) in [8] is given as 500,000 ppm.
Consider lecithin, for which the “E. Coli Log Reduction” value in experiment [1] worked out at 0 log.
Take `O=CCCCC=O` [Glutaraldehyde]: the “Outcome noted in parentheses at the listed concentration” value in experiment [8] (10-minute inactivation) is 2-log. Moreover, in experiment [8] (unit not given), the “Minimum Concentration” value is 10,000.
As for `[I-].[K+]` [KI, potassium iodide], the “E. Coli Log Reduction” value in experiment [1] was 0 log. Besides, the “Log Reduction” value in experiment [4] (N-source:H2O2:KI 0:0:500 ppm, pH 5, 15 minute contact) is on record as 0.0* log.
`CCCCCCCCCC[N+](C)(C)CCCCCCCCCC.[Cl-]` [didecyl dimethyl ammonium chloride]: the “Log Reduction” value was 0.1 log in experiment [3] (N-source:H2O2:KI 20:0:0 ppm, pH 3, 30 second contact) and 1.0* log in experiment [4] (N-source:H2O2:KI 100:0:0 ppm, pH 7, 15 minute contact).
As to `OCl` [sodium hypochlorite], the figures for the “Log Reduction” value in experiment [5] (active antimicrobial 30 ppm) and in [5] (active antimicrobial 80 ppm) were 0.3 log and 1.9 log, respectively. In experiment [8], the “Minimum Concentration” value is 2,000 ppm.
As for `CC(=O)OO` [peracetic acid], in [5] (active antimicrobial 80 ppm), the “Log Reduction” value was determined as 2.8 log.
On to `C[N+](C)(C)CCO.[Cl-]` [choline chloride], for which the “Log Reduction” value in experiment [1] (setting [10]) and in experiment [3] (setting [10]) was 0.0 log throughout. Further, the “E. Coli Log Reduction” value in experiment [1] was 0 log.
With `CCCCCCCCCCCCCCCC[n+]1ccccc1` [cetyl pyridinium chloride], in experiment [9], the “Log Reduction” value came to 0.5 log.
For the compound `Oc1ccccc1-c1ccccc1` [o-phenylphenol G], the “Minimum Concentration” value in [8] is listed as 100,000 ppm.
For the compound `CCO` [Ethanol], in experiment [8], the “Minimum Concentration” value is recorded as 500,000 ppm.
